Assay results taken from PubChem BioAssay (NCI).
Several values for one entry are separate records, joined by “and”; a condition that tells them apart may be missing. Equal entries are not always repeated.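 The compound was tested at five concentrations on cells cultured in 96-well plates, with a 48-hour exposure period. GI50 is the concentration that inhibits growth by half. TGI denotes the concentration required for complete inhibition of growth.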

Assays:
Experiment in all cases: NCI anticancer screen, dose series, 48 h
HOP-92 NSCLC = system: HOP-92 NSCLC
SK-OV-3 ovarian = system: SK-OV-3 ovarian
HL-60(TB) leukemia = system: HL-60(TB) leukemia
HS 578T breast = system: HS 578T breast
SF-268 CNS = system: SF-268 CNS
EKVX NSCLC = system: EKVX NSCLC
UACC-62 melanoma = system: UACC-62 melanoma
MALME-3M melanoma = system: MALME-3M melanoma
SK-MEL-2 melanoma = system: SK-MEL-2 melanoma
MDA-MB-231 breast = system: MDA-MB-231 breast
NCI-H226 lung = system: NCI-H226 lung
SR leukemia = system: SR leukemia
SF-539 CNS = system: SF-539 CNS
NCI-H23 lung = system: NCI-H23 lung
K-562 leukemia = system: K-562 leukemia
NCI-H522 lung = system: NCI-H522 lung
COLO 205 colon = system: COLO 205 colon
HCT-116 colon = system: HCT-116 colon
SF-295 CNS = system: SF-295 CNS
SW-620 colon = system: SW-620 colon
U251 CNS = system: U251 CNS
IGROV1 ovarian = system: IGROV1 ovarian
UACC-257 melanoma = system: UACC-257 melanoma
SN12C renal = system: SN12C renal
A549 NSCLC = system: A549 NSCLC
HCC-2998 colon = system: HCC-2998 colon
MCF7 breast = system: MCF7 breast
HOP-62 NSCLC = system: HOP-62 NSCLC
BT-549 breast = system: BT-549 breast
SK-MEL-5 melanoma = system: SK-MEL-5 melanoma
OVCAR-3 ovarian = system: OVCAR-3 ovarian
OVCAR-8 ovarian = system: OVCAR-8 ovarian
HT29 colon = system: HT29 colon
NCI/ADR-RES ovarian = system: NCI/ADR-RES ovarian
MOLT-4 leukemia = system: MOLT-4 leukemia
HCT-15 colon = system: HCT-15 colon
UO-31 renal = system: UO-31 renal
NCI-H460 lung = system: NCI-H460 lung
CCRF-CEM leukemia = system: CCRF-CEM leukemia
KM12 colon = system: KM12 colon
RPMI-8226 leukemia = system: RPMI-8226 leukemia
PC-3 prostate = system: PC-3 prostate
OVCAR-5 ovarian = system: OVCAR-5 ovarian
RXF 393 renal = system: RXF 393 renal
ACHN renal = system: ACHN renal
CAKI-1 renal = system: CAKI-1 renal
SK-MEL-28 melanoma = system: SK-MEL-28 melanoma
OVCAR-4 ovarian = system: OVCAR-4 ovarian
786-0 renal = system: 786-0 renal
SNB-19 CNS = system: SNB-19 CNS
A498 renal = system: A498 renal
DU-145 prostate = system: DU-145 prostate
MDA-MB-435 = system: MDA-MB-435
LOX IMVI melanoma = system: LOX IMVI melanoma
M14 melanoma = system: M14 melanoma
TK-10 renal = system: TK-10 renal
T-47D breast = system: T-47D breast
SNB-75 CNS = system: SNB-75 CNS

## CCCCCCCc1n(Cc2ccc3ccccc3c2)c2ccccc2[n+]1Cc1ccc2ccccc2c1
HOP-92 NSCLC
  GI50: 0.163 µM
  TGI: 0.67 µM
SK-OV-3 ovarian
  GI50: 0.87 µM
  TGI: 2.28 µM
HL-60(TB) leukemia
  GI50: 0.186 µM
  TGI: 0.569 µM
HS 578T breast
  GI50: 1.2 µM
  TGI: 3.67 µM
SF-268 CNS
  GI50: 0.345 µM
  TGI: 1.49 µM

## CC(=O)c1cc(C(=O)c2ccc3c(c2)Sc2ccccc2N3)n2ccccc12
EKVX NSCLC
  GI50: 0.0291 µM and 0.00498 µM
  TGI: > 33.2 µM
UACC-62 melanoma
  GI50: 0.00293 µM and 0.00332 µM
  TGI: > 33.2 µM
HOP-92 NSCLC
  TGI: 14.5 µM
MALME-3M melanoma
  GI50: 0.00487 µM
SK-MEL-2 melanoma
  GI50: 0.00477 µM
MDA-MB-231 breast
  GI50: 0.00651 µM and 0.0203 µM
NCI-H226 lung
  TGI: > 33.2 µM
SR leukemia
  GI50: 0.00459 µM and 0.00332 µM
  TGI: > 33.2 µM
SF-539 CNS
  GI50: 0.00278 µM and 0.00332 µM
  TGI: 0.00949 µM and 0.0103 µM
NCI-H23 lung
  GI50: 0.00773 µM and 0.00332 µM
  TGI: > 33.2 µM
K-562 leukemia
  GI50: 0.00385 µM and 0.00332 µM
  TGI: > 33.2 µM
NCI-H522 lung
  GI50: 0.00177 µM
  TGI: 0.00517 µM
COLO 205 colon
  GI50: 0.00327 µM and 0.00332 µM
  TGI: 0.0213 µM and 0.00993 µM
HCT-116 colon
  GI50: 0.00398 µM and 0.00332 µM
SK-OV-3 ovarian
  GI50: 0.00438 µM and 0.00332 µM
  TGI: 21.5 µM
SF-295 CNS
  GI50: 0.00284 µM
  TGI: 0.076 µM
SW-620 colon
  GI50: 0.00363 µM and 0.00332 µM
  TGI: > 33.2 µM
U251 CNS
  GI50: 0.00492 µM and 0.00332 µM
  TGI: 16.4 µM
IGROV1 ovarian
  GI50: 0.00897 µM and 0.0258 µM
  TGI: > 33.2 µM
UACC-257 melanoma
  GI50: 0.00332 µM
  TGI: > 33.2 µM
SN12C renal
  TGI: > 33.2 µM
A549 NSCLC
  GI50: 0.00613 µM and 0.00332 µM
  TGI: > 33.2 µM
HCC-2998 colon
  GI50: 0.0199 µM and 0.0295 µM
  TGI: > 33.2 µM
MCF7 breast
  GI50: 0.00344 µM and 0.00332 µM
  TGI: > 33.2 µM
HOP-62 NSCLC
  GI50: 0.00399 µM and 0.00332 µM
  TGI: > 33.2 µM
BT-549 breast
  GI50: 0.00773 µM and 0.0262 µM
  TGI: > 33.2 µM
SK-MEL-5 melanoma
  GI50: 0.00526 µM and 0.00332 µM
  TGI: 0.818 µM and 0.742 µM
OVCAR-3 ovarian
  GI50: 0.00365 µM
HL-60(TB) leukemia
  GI50: 0.00237 µM
  TGI: 0.0056 µM
OVCAR-8 ovarian
  GI50: 0.00752 µM and 0.00332 µM
  TGI: > 33.2 µM
HT29 colon
  GI50: 0.0035 µM and 0.00332 µM
NCI/ADR-RES ovarian
  GI50: 0.00393 µM and 0.00332 µM
  TGI: 1.86 µM
MOLT-4 leukemia
  GI50: 0.00623 µM and 0.00332 µM
  TGI: > 33.2 µM
HS 578T breast
  GI50: 0.00375 µM and 0.00332 µM
  TGI: > 33.2 µM
HCT-15 colon
  GI50: 0.00472 µM and 0.00332 µM
  TGI: > 33.2 µM
UO-31 renal
  GI50: 0.00579 µM and 0.00332 µM
  TGI: > 33.2 µM
NCI-H460 lung
  GI50: 0.00339 µM and 0.00332 µM
CCRF-CEM leukemia
  GI50: 0.0033 µM and 0.00332 µM
  TGI: > 33.2 µM
KM12 colon
  GI50: 0.00441 µM
RPMI-8226 leukemia
  GI50: 0.00585 µM and 0.00332 µM
  TGI: 20.6 µM
PC-3 prostate
  GI50: 0.00453 µM and 0.00332 µM
  TGI: > 33.2 µM
OVCAR-5 ovarian
  GI50: 0.0376 µM and 0.199 µM
  TGI: > 33.2 µM
SF-268 CNS
  TGI: > 33.2 µM
RXF 393 renal
  GI50: 0.00332 µM
  TGI: 20.5 µM
ACHN renal
  GI50: 0.00545 µM
CAKI-1 renal
  GI50: 0.00368 µM and 0.00369 µM
  TGI: > 33.2 µM
SK-MEL-28 melanoma
  TGI: > 33.2 µM
OVCAR-4 ovarian
  GI50: 0.0145 µM
786-0 renal
  GI50: 0.00459 µM
SNB-19 CNS
  GI50: 0.00824 µM
A498 renal
  GI50: 0.00225 µM and 0.00332 µM
DU-145 prostate
  GI50: 0.00514 µM and 0.00332 µM
  TGI: > 33.2 µM
MDA-MB-435
  GI50: 0.0018 µM and < 0.00332 µM
  TGI: 0.00453 µM and < 0.00332 µM
LOX IMVI melanoma
  GI50: 0.00587 µM and 0.00332 µM
  TGI: > 33.2 µM
M14 melanoma
  GI50: 0.00338 µM and 0.00332 µM
  TGI: > 33.2 µM

## Cc1cc(C)c(-c2c(N)cc(Br)cc2Br)c(N)c1
TK-10 renal
  GI50: 7.17 µM
  TGI: 20.5 µM
EKVX NSCLC
  GI50: 5.15 µM
  TGI: 26.3 µM
UACC-62 melanoma
  GI50: 4.3 µM
  TGI: 17.2 µM
HOP-92 NSCLC
  GI50: 2.77 µM
  TGI: 9.4 µM
MALME-3M melanoma
  GI50: 5.09 µM
  TGI: 20.3 µM
SK-MEL-2 melanoma
  GI50: 3.95 µM
  TGI: 14.1 µM
MDA-MB-231 breast
  GI50: 4.85 µM
  TGI: 19 µM
NCI-H226 lung
  GI50: 11.8 µM
  TGI: 26.5 µM
SF-539 CNS
  GI50: 2.94 µM
  TGI: 9.87 µM
NCI-H23 lung
  GI50: 4.89 µM
  TGI: 18 µM
NCI-H522 lung
  GI50: 4.85 µM
  TGI: 19.1 µM
COLO 205 colon
  GI50: 4.93 µM
  TGI: 15.6 µM
T-47D breast
  GI50: 5.71 µM
  TGI: 19.3 µM
HCT-116 colon
  GI50: 4.35 µM
  TGI: 15.6 µM
SK-OV-3 ovarian
  GI50: 3.53 µM
  TGI: 14.3 µM
SF-295 CNS
  GI50: 3.16 µM
  TGI: 14.8 µM
SW-620 colon
  GI50: 3.93 µM
  TGI: 16 µM
U251 CNS
  GI50: 4.73 µM
  TGI: 17 µM
IGROV1 ovarian
  GI50: 6.13 µM
  TGI: 22.7 µM
SNB-75 CNS
  GI50: 2.48 µM
  TGI: 10.1 µM
UACC-257 melanoma
  GI50: 5.84 µM
  TGI: 22.1 µM
SN12C renal
  GI50: 7.41 µM
  TGI: 21.9 µM
A549 NSCLC
  GI50: 5.62 µM
  TGI: 19.6 µM
HCC-2998 colon
  GI50: 10.9 µM
  TGI: 23.1 µM
MCF7 breast
  GI50: 4.03 µM
  TGI: 13.8 µM
BT-549 breast
  GI50: 5.76 µM
  TGI: 18.2 µM
SK-MEL-5 melanoma
  GI50: 3.82 µM
  TGI: 13.9 µM
OVCAR-3 ovarian
  GI50: 3.09 µM
  TGI: 8.74 µM
OVCAR-8 ovarian
  GI50: 10.2 µM
  TGI: 31.7 µM
HT29 colon
  GI50: 3.49 µM
  TGI: 13.1 µM
NCI/ADR-RES ovarian
  GI50: 2.98 µM
  TGI: 9.11 µM
HCT-15 colon
  GI50: 4.7 µM
  TGI: 17.3 µM
UO-31 renal
  GI50: 5.4 µM
  TGI: 20 µM
NCI-H460 lung
  GI50: 4.5 µM
  TGI: 16.7 µM
KM12 colon
  GI50: 3.89 µM
  TGI: 14.5 µM
RPMI-8226 leukemia
  GI50: 5.19 µM
  TGI: 19.6 µM
PC-3 prostate
  GI50: 6.42 µM
  TGI: 26.5 µM
OVCAR-5 ovarian
  GI50: 11.6 µM
  TGI: 25.6 µM
SF-268 CNS
  GI50: 7.86 µM
  TGI: 21.5 µM
RXF 393 renal
  GI50: 3.16 µM
  TGI: 8.78 µM
ACHN renal
  GI50: 10 µM
  TGI: 22.8 µM
CAKI-1 renal
  GI50: 3.83 µM
  TGI: 19.1 µM
SK-MEL-28 melanoma
  GI50: 6.25 µM
  TGI: 21 µM
OVCAR-4 ovarian
  GI50: 8.43 µM
  TGI: 22.3 µM
786-0 renal
  GI50: 7.75 µM
  TGI: 21.6 µM
SNB-19 CNS
  GI50: 6.68 µM
  TGI: 26.4 µM
A498 renal
  GI50: 2.35 µM
  TGI: 14.4 µM
DU-145 prostate
  GI50: 4.33 µM
  TGI: 16.4 µM
MDA-MB-435
  GI50: 2.29 µM
  TGI: 7.37 µM
LOX IMVI melanoma
  GI50: 5.21 µM
  TGI: 18 µM
M14 melanoma
  GI50: 4.4 µM
  TGI: 15.7 µM
